These results are taken from PMC6588349 (eLife, 2019).

By EC50 is commonly meant the midpoint of the concentration-response curve.

Data set [1] is described as follows: Gramicidin-based fluorescence quench assay for changes of lipid bilayer properties (LUVs). Format: physicochemical. The note with it: 1 to 10 µM. The source says:
To further probe this, we used a fluorescence quench assay for drug-induced changes of lipid bilayer properties ([Ingólfsson and Andersen, 2010]) (Figure 6—figure supplement 3A; see Materials and methods), in which changes in gramicidin channel function is used as a reporter of membrane modification. […] The persistent BINA response is thus consistent with a model where BINA readily partitions into the plasma membrane lipid bilayer (and possibly other lipidic compartments).
The gramicidin-based fluorescence assay has been described previously ([Ingólfsson and Andersen, 2010]). In brief, large unilamellar vesicles (LUVs), loaded with intravesicular ANTS were prepared from DC22:1PC and gramicidin (weight ratio 1000:1, corresponding to a ~ 2000:1 molar ratio) using freeze-drying, extrusion and size-exclusion chromatography; the final lipid concentration was 4–5 mM; the suspension was stored in the dark at 12.5°C for a maximum of 7 days. […] Before use, the LUV-ANTS stock was diluted to 200–250 μM lipid with NaNO3 buffer (140 mM NaNO3, 10 mM HEPES, pH 7).
The NAMs and PAMs (dissolved in DMSO) or DMSO (as control) were added to a LUV-ANTS sample and equilibrated at 25°C in the dark for 10 min. before the mixture was loaded into a stopped-flow spectrofluorometer (Applied Photophysics SX.20, Leatherhead, UK) and mixed with either NaNO3 buffer or TlNO3 buffer; Tl^+ (thallous ion) is a gramicidin channel-permeant quencher of the ANTS fluorescence. Samples were excited at 352 nm and the fluorescence signal above 455 nm was recorded in the absence (four successive trials) or presence (nine successive trials) of the quencher. All the NAM and PAM derivatives fluoresce to varying degrees and addition of these drugs to LUVs in control experiments without gA or Tl^+ increased the fluorescence signal, and each signal was normalized to account for the compound's fluorescence. […] The quench rate (Rate), the rate of Tl^+ influx, was determined at 2 ms: Rate=β/τ0⋅(t/τ0)^β−1|2ms […]

The target in data set [2] is T1, SNAP-mGluR2 (full-length) (Rattus norvegicus, UniProt P31421).
T1 construct: HEK 293T cells expressing full-length mGluR2; expressed in transfected cells; host or cells: HEK 293T
T1 sequence (P31421 19-872): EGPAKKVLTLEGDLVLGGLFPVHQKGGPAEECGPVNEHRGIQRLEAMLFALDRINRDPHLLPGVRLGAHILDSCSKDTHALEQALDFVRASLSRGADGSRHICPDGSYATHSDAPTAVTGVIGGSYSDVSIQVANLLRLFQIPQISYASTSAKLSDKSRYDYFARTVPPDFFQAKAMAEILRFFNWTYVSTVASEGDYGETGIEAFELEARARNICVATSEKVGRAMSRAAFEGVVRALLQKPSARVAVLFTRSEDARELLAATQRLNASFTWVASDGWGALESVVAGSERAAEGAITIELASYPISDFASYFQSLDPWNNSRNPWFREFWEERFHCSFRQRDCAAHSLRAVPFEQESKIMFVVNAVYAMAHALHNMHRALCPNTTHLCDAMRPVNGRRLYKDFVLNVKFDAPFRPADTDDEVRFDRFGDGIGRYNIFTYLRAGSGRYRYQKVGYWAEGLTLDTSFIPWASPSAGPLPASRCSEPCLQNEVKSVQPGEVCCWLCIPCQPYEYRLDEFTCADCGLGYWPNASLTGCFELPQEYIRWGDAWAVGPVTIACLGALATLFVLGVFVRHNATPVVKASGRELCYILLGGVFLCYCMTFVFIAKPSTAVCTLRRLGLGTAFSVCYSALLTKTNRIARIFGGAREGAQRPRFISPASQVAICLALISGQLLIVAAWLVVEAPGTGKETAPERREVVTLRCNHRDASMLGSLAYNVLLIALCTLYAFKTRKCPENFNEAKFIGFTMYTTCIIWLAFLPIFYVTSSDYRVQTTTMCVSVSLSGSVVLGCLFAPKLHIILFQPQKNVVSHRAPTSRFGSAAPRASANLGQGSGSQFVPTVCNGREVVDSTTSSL
The data set can be described thus: Inter-LBD FRET assay with full-length SNAP-mGluR2. Format: cell-based. The note with it: drug applied alone, saturating concentrations. An excerpt: We next sought to further probe the variation in PAM-induced inter-TMD FRET changes. […] We used an inter-LBD FRET assay to assess the relative strength of allosteric modulation by different mGluR2 PAMs. Agonists induce a decrease in FRET between fluorophore-conjugated N-terminal SNAP- and CLIP-tags (Figure 4E). […] We tested this effect for all PAMs by applying a saturating concentration of DCG-IV followed by co-application of a saturating concentration of each PAM, which produced further FRET decreases (Figure 4F,G).
(§1) Fluorophores were diluted in EX solution, which was also used to wash coverslips following labeling and prior to mounting on the microscope. After labeling, cells were mounted on an inverted microscope (Olympus IX73) and imaged with a 60x objective. […] Clusters of cells were analyzed together using ImageJ and FRET was calculated as FRET=(IAcceptor)/(IDonor +IAcceptor) where I is fluorescence intensity. No corrections were made for bleed-through between channels or the contribution of donor-donor or acceptor-acceptor dimers as analysis was limited to relative FRET changes between drug treatments rather than absolute FRET values. […] FRET changes calculated for dose–response curves were normalized to the response to saturating […] applied within the same recording and dose–response curves were obtained from multiple cell clusters and averaged from at least three separate experiments. Dose–response curves were fit using Prism (Graphpad). All drugs were purchased from Tocris, prepared in EX solution, and delivered with a gravity-driven perfusion system. For kinetics measurements a pressurized perfusion system (Automate Scientific) was used to produce a flow rate of 0.5 mL/s. Kinetic analysis was performed in Microsoft Excel. The time between 10% and 90% FRET increase or decrease was determined manually. For photo-bleaching/donor-recovery experiments, images were taken in donor and acceptor channels at baseline and again followed by a 1 min exposure to 640 nm laser illumination at maximum intensity. All experiments were performed at room temperature. All data were produced from at least two separate transfections for each condition.

The target of data set [3] is T2, full-length mGluR2 (SNAP-mGluR2) (Rattus norvegicus, UniProt P31421).
T2 construct: HEK 293T cells expressing full-length mGluR2; expressed in transfected cells; host or cells: HEK 293T
T2 sequence (P31421 19-872): as above
Kind of data set: GIRK activation assay, whole cell patch clamp, HEK 293T cells expressing full-length mGluR2. In kind it is cell-based. Conditions: for EC50: read-out: GIRK activation EC50. The procedure: Cells were cultured in DMEM with 5% FBS on poly-L-lysine-coated glass coverslips. DNA plasmids were transfected into cells using Lipofectamine 3000 (Thermo Fisher). […] For single-molecule pulldown (SiMPull) experiments, cells were transfected with 0.7 μg DNA of HA and SNAP-tagged receptor constructs, unless otherwise noted.
Whole-cell patch clamp recordings from single isolated cells were performed 24–36 hr after transfection in a high-potassium extracellular solution containing (in mM): 120 KCl, 29 NaCl, 1 MgCl2, 2 CaCl2 and 10 HEPES, pH 7.4. Cells were voltage clamped to −60 mV using an Axopatch 200B amplifier (Axon Instruments) and membrane currents were recorded. Glass pipettes of resistance between 3 and 8 MΩ were filled with intracellular solution containing (in mM): 140 KCl, 10 HEPES, 3 Na2ATP, 0.2 Na2GTP, 5 EGTA and 3 MgCl2, pH 7.4. Data were acquired with a 2 kHz acquisition rate and filtered with the amplifier 4-pole Bessel filter at 1 kHz. Drugs were prepared in extracellular solution and applied using a gravity-driven perfusion system. Data were analyzed with Clampfit (Molecular Devices) and Prism (GraphPad). Data for all conditions came from at least two separate transfections.
In general terms: The patch-clamp technique gives a direct electrical read-out from membranes.

The target of the next data set is T3, SNAP-mGluR2-TMD (Rattus norvegicus, UniProt P31421).
T3 construct: mGluR2-TMD (rat) starts at Q558; expressed in transfected cells; host or cells: HEK 293T
T3 sequence (P31421 558-872 limits assumed): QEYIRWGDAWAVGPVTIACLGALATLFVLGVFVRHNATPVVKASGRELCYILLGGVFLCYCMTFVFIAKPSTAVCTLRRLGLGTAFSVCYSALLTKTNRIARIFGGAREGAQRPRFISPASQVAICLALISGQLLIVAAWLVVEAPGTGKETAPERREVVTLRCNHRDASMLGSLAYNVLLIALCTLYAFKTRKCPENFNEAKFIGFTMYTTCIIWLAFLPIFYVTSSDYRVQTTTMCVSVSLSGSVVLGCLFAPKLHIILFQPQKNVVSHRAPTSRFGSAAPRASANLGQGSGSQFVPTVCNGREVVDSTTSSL
The data set can be described thus: Inter-TMD FRET assay in living HEK 293T cells. Format: cell-based. The note with it: for EC50: SNAP-mGluR2-TMD labeled with donor and acceptor, normalized to saturating LY48, mean ± s.e.m., read-out: inter-TMD FRET increase EC50.
Excerpt: We therefore sought to develop a FRET sensor that reports on activation-associated motions driven by allosteric drugs and hypothesized that an N-terminal fluorophore on the isolated TMD should report on any inter-TMD rearrangement while allowing the receptor to maintain G-protein coupling (Figure 3A). […] To test if LBD-independent inter-TMD rearrangement is a feature of other mGluRs, we asked if donor and acceptor conjugation to SNAP-mGluR5-TMD would allow for the detection a FRET response to a PAM.
Cells were cultured in DMEM with 5% FBS on poly-L-lysine-coated glass coverslips. DNA plasmids were transfected into cells using Lipofectamine 3000 (Thermo Fisher). […] For single-molecule pulldown (SiMPull) experiments, cells were transfected with 0.7 μg DNA of HA and SNAP-tagged receptor constructs, unless otherwise noted. For FRET experiments, cells were transfected with either SNAP-tagged constructs at 0.5–0.7 μg of DNA/well or SNAP and CLIP-tagged constructs at a ratio of 1:2 with 0.3 μg of SNAP DNA/well.
as §1

Another data set addresses T4, SNAP-mGluR2 (Rattus norvegicus, UniProt P31421).
T4 construct: HEK 293T cells expressing full-length mGluR2; expressed in transfected cells; host or cells: HEK 293T
Kind of data set: Single-molecule pulldown (SiMPull) photobleaching step counting, full-length SNAP-mGluR2. The note with it: saturating (1 mM) glutamate. The procedure: To restrict our analysis to surface-targeted receptors, we expressed N-terminally SNAP-tagged receptor variants and labeled them with membrane-impermeable fluorophores.
To test this, we incubated SNAP-mGluR2-TMD expressing cells and lysates with PAMs or NAMs during the SiMPull experiment.
Briefly, to prevent non-specific sticking of proteins, flow chambers were prepared with mPEG-passivated glass slides and coverslips doped with ~1% biotinylated mPEG, as previously described. Prior to each experiment, chambers were incubated with 0.2 mg/mL NeutrAvidin (ThermoFisher) for 2 min followed by 10 nM of a biotinylated anti-HA antibody (abcam ab26228) for 20–30 min. After each conjugation step, the chambers were washed with T50 buffer (50 mM NaCl, 10 mM Tris, pH 7.5).
After labeling, cells were dissociated from coverslips by incubating with Ca^2+-free PBS for 20 min followed by gentle pipetting. […] Following 1 hr of lysis at 4°C, cells were centrifuged at 16,000 g for 20 min before the supernatant was collected and maintained on ice. The cell lysate was diluted in a 0.1% detergent dilution buffer to obtain sparse immobilization of labeled protein on the passivated slide. […]
Single molecules were imaged with a 100x objective on an inverted microscope (Olympus IX73) in total internal reflection fluorescence (TIRF) mode. […]

In a further data set the target is SNAP-mGluR5-TMD (Homo sapiens, UniProt P41594). The data set can be described thus: Inter-TMD FRET assay with SNAP-mGluR5-TMD. Conditions: mGluR5 PAM applied alone. Format: cell-based, H. sapiens.
Sequence of SNAP-mGluR5-TMD (P41594 570-876 limits assumed): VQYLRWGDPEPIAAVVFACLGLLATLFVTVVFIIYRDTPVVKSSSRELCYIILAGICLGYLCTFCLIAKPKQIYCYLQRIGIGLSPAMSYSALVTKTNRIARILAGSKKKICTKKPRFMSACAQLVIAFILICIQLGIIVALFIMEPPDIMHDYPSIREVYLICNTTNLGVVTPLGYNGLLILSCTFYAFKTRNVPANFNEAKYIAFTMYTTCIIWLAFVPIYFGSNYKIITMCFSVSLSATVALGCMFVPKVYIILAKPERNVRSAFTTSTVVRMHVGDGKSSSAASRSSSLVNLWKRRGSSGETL

T4 sequence (P31421 19-872): as the sequence (P31421 19-872) above

For the compound `Cc1c(OCc2cccc(-c3ccc(C(=O)O)cc3)c2)cc2c(c1C)C(=O)C(C1CCCC1)C2` (stereo not drawn) [BINA], the “changes in gramicidin channel function (membrane properties)” value in data set [1] is listed as “greatest changes in gramicidin channel function”.

With `CCS(=O)(=O)N(Cc1cccnc1)c1cccc(-c2ccc(C#N)cc2)c1` [CBiPES], the “direct effect on inter-LBD FRET (no orthosteric agonist for modulators)” value in data set [2] is on record as “no FRET response”. For the same compound, the EC50 in data set [3] came to 460 ± 200 nM. Besides, at SNAP-mGluR2-TMD, the “inter-TMD FRET kinetics relative to LY48” value was “substantially faster ON and OFF kinetics”; the EC50 was found to be 3500 ± 200 nM. Also, at SNAP-mGluR2-TMD (saturating concentrations), the “inter-TMD FRET response onset” value was 10 to 40 s and the “inter-TMD FRET response reversal” value is reported as less than 2 min.

For `N[C@@H](CCC(=O)O)C(=O)O` [Glutamate], the “direct effect on inter-LBD FRET (no orthosteric agonist for modulators)” value in data set [2] is recorded as “large FRET decrease”. Besides, at SNAP-mGluR2, the “two-step bleaching events of SNAP-mGluR2 with glutamate” value is listed as ~ 60%. For the same compound, the “GIRK current time 10% to 90%” value in data set [3] (saturating: 10 µM LY48, 1 mM Glutamate) stood at 1.9 ± 0.5 s.

Consider `Cc1c(C(N)=O)nc2n1C[C@@H](COc1ccc(C(C)(C)C)cc1)O2` [TASP], for which the “direct effect on inter-LBD FRET (no orthosteric agonist for modulators)” value in data set [2] was “no FRET response”. Moreover, the EC50 in data set [3] amounted to 380 ± 110 nM. Further, on SNAP-mGluR2-TMD, the concentration for a half-maximal effect (EC50) was 900 ± 100 nM. Besides, at SNAP-mGluR2-TMD (saturating concentrations), the “inter-TMD FRET response onset” value is 10 to 40 s and the “inter-TMD FRET response reversal” value was less than 2 min. Also, the “maximum inter-TMD FRET increase relative to LY48” value on SNAP-mGluR2-TMD (saturating concentrations, compared to saturating LY48) was ~ 1.3 times that of LY48.

`O=C(NC1CCC1)c1ccc(C#Cc2cccc(F)c2)nc1` [VU0360172]: the “inter-TMD FRET response of SNAP-mGluR5-TMD” value on SNAP-mGluR5-TMD was “reversible FRET response”.

Turning to `O=C(O)c1cc(O)c2cccc(O)c2n1` [XA, Xanthurenic acid], at SNAP-mGluR2-TMD (drug applied alone, XA up to 50 µM), the “inter-TMD FRET response to drug alone” value is listed as “neither inter-TMD FRET changes”.
